SMILES strings stand for the structures.

The first assay relates to hydrochloric acid-ethanol-induced gastric ulcer. Nature of the assay: Effect against hydrochloric acid ethanol-induced gastric ulcer (percent suppression of lesion index, oral). Format: in vivo, male JCL-SD rats or CRJ-SD rats. To be noted: JCL-SD rats; oral; 30 μg/kg, 30 min before HCl-ethanol. As to the method:
To male JCL-SD rats or CRJ-SD rats (weight: 220 g to 260 g) which have been fasted for 24 hours is administered orally 1 ml of 150 mM hydrochloric acid-60% ethanol. After an hour, the stomachs are excised. The ulcer size is determined by measuring the length of each lesion using a stereoscopic microscope and the sum of individual lesion length is expressed as lesion index. The vehicle (1% to 10% ethanol) and the test compounds are administered orally 30 minutes before the hydrochloric acid-ethanol administration. The percent suppression is calculated from the lesion indexes of treated versus non-treated animals.
For the molecule `CCCCC(C)CC(O)C=CC1C(O)CC2Oc3c(OCC(=O)OC)cccc3OC21` (centres unmarked) [Ibd-a], the “Percent Suppression (P.S.)” value turned out to be 91%.

For the molecule `CCCCC(C)CC(O)C=CC1C(O)CC2Oc3c(OCC(=O)O)cccc3OC21` (centres unmarked) [Ibd-b], the “Percent Suppression (P.S.)” value is 74%.

In the case of `CCCCC(C)CC(O)C=CC1C(O)CC2Oc3c(OCC(=O)OC)cccc3OC21` (centres unmarked) [Ibe-a], the “Percent Suppression (P.S.)” value was found to be 96%.

Consider `COC(=O)COc1cccc2c1OC1CC(O)C(C=CC(O)CC(C)CCC=C(C)C)C1O2` (centres unmarked) [Ibl-a], for which the “Percent Suppression (P.S.)” value is listed as 64%.

`CC(C)=CCCC(C)CC(O)C=CC1C(O)CC2Oc3c(OCC(=O)O)cccc3OC21` (centres unmarked) [Ibl-b]: the “Percent Suppression (P.S.)” value came to 83%.

Turning to `CCCCC(C)CC(O)C=CC1C(O)CC2Oc3c(OCC(=O)OC)cccc3OC21` (centres unmarked) [Idd-a], the “Percent Suppression (P.S.)” value stood at 32%.

Take `CCCCC(C)CC(O)C=CC1C(O)CC2Oc3c(OCC(=O)OC)cccc3OC21` (centres unmarked) [Ide-a]: the “Percent Suppression (P.S.)” value amounted to 37%.

With `CCCCC(C)CC(O)CCC1C(O)CC2Oc3c(OCC(=O)OC)cccc3OC21` (centres unmarked) [Ifd-a], the “Percent Suppression (P.S.)” value is on record as 66%.

For `CCCCC(C)CC(O)CCC1C(O)CC2Oc3c(OCC(=O)OC)cccc3OC21` (centres unmarked) [Ife-a], the “Percent Suppression (P.S.)” value is recorded as 91%.

The assay is the same for the next values; noted with them: Rattus norvegicus, po, 1 h, CRJ-SD rats; oral; 30 μg/kg, 30 min before HCl-ethanol; read-out: Percent Suppression (P.S.).
With `CCCCC(C)CC(O)C=CC1C(O)CC2Oc3c(OCC(=O)OC)cccc3OC21` (centres unmarked) [Ibe-a], the inhibition in vivo at 0.03 mg/kg worked out at 99%.

Staying with this assay, now noted: Rattus norvegicus, po, 1 h, JCL-SD rats; oral; 30 μg/kg, 30 min before HCl-ethanol; read-out: Percent Suppression (P.S.).
For the molecule `CCCCC[C@@H](O)/C=C/[C@H]1[C@@H]2Oc3cccc(OCC(=O)OC)c3O[C@@H]2C[C@@H]1O` (relative stereo) [Iba-a], the inhibition in vivo at 0.03 mg/kg amounted to 36%.

Consider `COC(=O)COc1cccc2c1O[C@@H]1C[C@H](O)[C@@H](/C=C/[C@H](O)C3CCCCC3)[C@@H]1O2` (relative stereo) [Ibb-a], for which the inhibition in vivo at 0.03 mg/kg was 63%.

As to `O=C(O)COc1cccc2c1O[C@@H]1C[C@H](O)[C@@H](/C=C/[C@H](O)C3CCCCC3)[C@@H]1O2` (relative stereo) [Ibb-b], the inhibition in vivo at 0.03 mg/kg stood at 25%.

With `CCC#CCC[C@@H](O)/C=C/[C@H]1[C@@H]2Oc3cccc(OCC(=O)OC)c3O[C@@H]2C[C@@H]1O` (relative stereo) [Ibc-a], the inhibition in vivo at 0.03 mg/kg amounted to 29%.

For the molecule `CCC#CCC[C@@H](O)/C=C/[C@H]1[C@@H]2Oc3cccc(OCC(=O)O)c3O[C@@H]2C[C@@H]1O` (relative stereo) [Ibc-b], the inhibition in vivo at 0.03 mg/kg came out at 14%.

`CCCCC(C)(C)[C@@H](O)/C=C/[C@H]1[C@@H]2Oc3cccc(OCC(=O)OC)c3O[C@@H]2C[C@@H]1O` (relative stereo) [Ibg-a]: the inhibition in vivo at 0.03 mg/kg was found to be 15%.

On to `COC(=O)COc1cccc2c1O[C@@H]1C[C@H](O)[C@@H](/C=C/[C@H](O)C3CCCC3)[C@@H]1O2` (relative stereo) [Ibi-a], for which the inhibition in vivo at 0.03 mg/kg was found to be 41%.

As to `CCCCC[C@H](O)/C=C/[C@H]1[C@@H]2Oc3cccc(OCC(=O)OC)c3O[C@@H]2C[C@@H]1O` (relative stereo) [Ida-a, methyl [(1R*,2S*,3aR*,9aS*)-2-hydroxy-1-[(3S*,1E)-3-hydroxy-1-octenyl]-2,3,3a,9a-tetrahydro-1H-cyclopenta[b][1,4]benzodioxin-5-yl]oxyacetate], the inhibition in vivo at 0.03 mg/kg amounted to 37%.

In the case of `O=C(O)COc1cccc2c1O[C@@H]1C[C@H](O)[C@@H](/C=C/[C@@H](O)C3CCCCC3)[C@@H]1O2` (relative stereo) [Idb-b], the inhibition in vivo at 0.03 mg/kg is 25%.

As for `CCCCC[C@@H](O)CC[C@H]1[C@@H]2Oc3cccc(OCC(=O)OC)c3O[C@@H]2C[C@@H]1O` (relative stereo) [Ifa-a, methyl[(1R*,2S*,3aR*,9aS*)-2-hydroxy-1-[(R*)-3-hydroxyoctyl]-2,3,3a,9a-tertahydro-1H-cyclopenta[b][1,4]benzodioxin-5-oxyacetate], the inhibition in vivo at 0.03 mg/kg was 27%.

As for `COC(=O)COc1cccc2c1O[C@@H]1C[C@H](O)[C@@H](CC[C@H](O)C3CCCCC3)[C@@H]1O2` (relative stereo) [Ifb-a], the inhibition in vivo at 0.03 mg/kg worked out at 78%.

In the case of `O=C(O)COc1cccc2c1O[C@@H]1C[C@H](O)[C@@H](CC[C@H](O)C3CCCCC3)[C@@H]1O2` (relative stereo) [Ifb-b], the inhibition in vivo at 0.03 mg/kg was determined as 75%.

For `COC(=O)COc1cccc2c1O[C@@H]1C[C@H](O)[C@@H](CC[C@H](O)C3CCCC3)[C@@H]1O2` (relative stereo) [Ifi-a], the inhibition in vivo at 0.03 mg/kg amounted to 52%.

`COC(=O)COc1cccc2c1O[C@@H]1C[C@H](O)[C@@H](CC[C@H](O)CC3CCCCC3)[C@@H]1O2` (relative stereo) [Ifj-a]: the inhibition in vivo at 0.03 mg/kg amounted to 25%.

Consider `CCCCC(C)CC(O)C=CC1C(O)CC2Oc3c(OCC(=O)O)cccc3OC21` (centres unmarked) [Ibe-b], for which the inhibition in vivo at 0.03 mg/kg was 80%.

As to `COC(=O)COc1cccc2c1OC1CC(O)C(C=CC(O)CC(C)CCC=C(C)C)C1O2` (centres unmarked) [Ibk-a], the inhibition in vivo at 0.03 mg/kg was determined as 81%.

With `CC(C)=CCCC(C)CC(O)C=CC1C(O)CC2Oc3c(OCC(=O)O)cccc3OC21` (centres unmarked) [Ibk-b], the inhibition in vivo at 0.03 mg/kg is 70%.

For `COC(=O)COc1cccc2c1OC1CC(O)C(C=CC(O)CC(C)Oc3ccccc3)C1O2` (centres unmarked) [Ibm-a], the inhibition in vivo at 0.03 mg/kg stood at 58%.

As for `COC(=O)COc1cccc2c1OC1CC(O)C(C=CC(O)CC(C)COc3ccccc3)C1O2` (centres unmarked) [Ibo-a], the inhibition in vivo at 0.03 mg/kg was 63%.

Staying with this assay, now noted: Rattus norvegicus, po, 1 h, JCL-SD rats; oral; 100 μg/kg, 30 min before HCl-ethanol; read-out: Percent Suppression (P.S.).
In the case of `CCCCC[C@@H](O)/C=C/[C@H]1[C@@H]2Oc3cccc(OCC(=O)O)c3O[C@@H]2C[C@@H]1O` (relative stereo) [Iba-b, [(1R*,2S*,3aR*,9aS*)-2-hydroxy-1-[(3R*,1E)-3-hydroxy-1-octenyl]-2,3,3a,9a-tetrahydro-1H-cyclopenta[b][1,4]benzodioxin-5-yl]oxyacetic acid], the inhibition in vivo at 0.1 mg/kg is 30%.

Regarding `CCCCC[C@H](O)/C=C/[C@H]1[C@@H]2Oc3cccc(OCC(=O)O)c3O[C@@H]2C[C@@H]1O` (relative stereo) [Ida-b, [(1R*,2S*,3aR*,9aS*)-2-hydroxy-1-[(3S*,1E)-3-hydroxy-1-octenyl]-2,3,3a,9a-tetrahydro-1H-cyclopenta[b][1,4]benzodioxin-5-yl]oxyacetic acid], the inhibition in vivo at 0.1 mg/kg came out at 19%.

The same assay, now with this note: reference compound; 300 μg/Kg; strain not stated.
Regarding `CCCCC[C@H](O)/C=C/[C@@H]1[C@H]2CC(SCCCC(=O)OC)=N[C@H]2C[C@H]1O` [Hoe892, reference compound], the “Percent Suppression (P.S.)” value is reported as 28%.

For the origin of these results see patent US4902811A, “Benzodioxane prostacyclin analogs” (Shionogi & Co., Ltd., priority 1987, dated 1990).
